Source: patent US8952024B2, “Herbicidal pyrimidone derivatives” (E I du Pont de Nemours and Company, priority 2009, dated 2015)

What was measured:
Assay in all cases: Test B pre-/postemergence plant response
Assay type in all cases: in vivo
Conditions in all cases: Postemergence
[1] = system: cocklebur (Xanthium strumarium)
In short: (§1)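 Response scores were assigned visually after 13 to 15 days in a greenhouse, comparing treated pots with controls on a 0–100 scale where 100 denotes complete control. Preemergence treatments went onto freshly seeded loam/sand soil; postemergence treatments onto plants 2 to 18 cm tall.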

[2] = system: goosegrass (Eleusine indica)
In short: as §1

[3] = system: giant foxtail (Setaria faberii)
In short: as §1

[4] = system: green foxtail (Setaria viridis)
In short: as §1

[5] = system: Italian ryegrass (Lolium multiflorum)
In short: as §1

[6] = system: ragweed (common ragweed, Ambrosia elatior)
In short: as §1

[7] = system: morningglory (Ipomoea coccinea)
In short: as §1

[8] = system: velvetleaf (Abutilon theophrasti)
In short: as §1

corn (Zea mays) = system: corn (Zea mays)
In short: as §1

[9] = system: large crabgrass (Digitaria sanguinalis)
In short: as §1

[10] = system: johnsongrass (Sorghum halepense)
In short: as §1

[11] = system: blackgrass (Alopecurus myosuroides)
In short: as §1

soybean (Glycine max) = system: soybean (Glycine max)
In short: as §1

kochia (Kochia scoparia) = system: kochia (Kochia scoparia)
In short: as §1

[12] = 31 g ai/ha, 0 to 100 scale (0 no effect, 100 complete control)
[13] = 62 g ai/ha, scale 0 to 100 (0 no effect, 100 complete control)
[14] = 125 g ai/ha, scale 0 to 100 (0 no effect, 100 complete control)
[15] = 250 g ai/ha, scale 0 to 100 (0 no effect, 100 complete control), 13 to 15 days

CC1(C)CC(=O)C(C(=O)c2cnc(-c3ccccc3)n(-c3ccccc3)c2=O)=C(O)C1 [Compound 225]
Plant response rating, Cocklebur ([1]; 16 g ai/ha, 0 to 100 scale): 85 | Plant response rating, Cocklebur [1, 12]: 98 | Plant response rating, Cocklebur [1, 13]: 100 | Plant response rating, Cocklebur [1, 14]: 100 | Plant response rating, Goosegrass ([2]; 16 g ai/ha, 0 to 100 scale): 80 | Plant response rating, Goosegrass [2, 12]: 85 | Plant response rating, Goosegrass [2, 13]: 90 | Plant response rating, Goosegrass [2, 14]: 95 | Plant response rating, Foxtail, Giant ([3]; 16 g ai/ha, 0 to 100 scale): 75 | Plant response rating, Foxtail, Giant [3, 12]: 75 | Plant response rating, Foxtail, Giant [3, 13]: 80 | Plant response rating, Foxtail, Giant [3, 14]: 85 | Plant response rating, Foxtail, Green ([4]; 16 g ai/ha, 0 to 100 scale): 85 | Plant response rating, Foxtail, Green [4, 12]: 85 | Plant response rating, Foxtail, Green [4, 13]: 98 | Plant response rating, Foxtail, Green [4, 14]: 98 | Plant response rating, Ryegrass, Italian ([5]; 16 g ai/ha, 0 to 100 scale): 0 | Plant response rating, Ryegrass, Italian [5, 12]: 0 | Plant response rating, Ryegrass, Italian [5, 13]: 35 | Plant response rating, Ragweed ([6]; 16 g ai/ha, 0 to 100 scale): 70 | Plant response rating, Ragweed [6, 12]: 75 | Plant response rating, Ragweed [6, 13]: 80 | Plant response rating, Morningglory ([7]; 16 g ai/ha, 0 to 100 scale): 80 | Plant response rating, Morningglory [7, 12]: 95 | Plant response rating, Morningglory [7, 13]: 95 | Plant response rating, Morningglory [7, 14]: 95 | Plant response rating, Velvetleaf ([8]; 16 g ai/ha, 0 to 100 scale): 80 | Plant response rating, Velvetleaf [8, 12]: 80 | Plant response rating, Velvetleaf [8, 13]: 90 | Plant response rating, Corn (corn (Zea mays); 16 g ai/ha, 0 to 100 scale): 10 | Plant response rating, Corn (corn (Zea mays); [12]): 40 | Plant response rating, Corn (corn (Zea mays); [13]): 50 | Plant response rating, Corn (corn (Zea mays); [14]): 70 | Plant response rating, Crabgrass, Large ([9]; 16 g ai/ha, 0 to 100 scale): 70 | Plant response rating, Crabgrass, Large [9, 12]: 75 | Plant response rating, Crabgrass, Large [9, 13]: 85 | Plant response rating, Crabgrass, Large [9, 14]: 95 | Plant response rating, Johnsongrass ([10]; 16 g ai/ha, 0 to 100 scale): 20 | Plant response rating, Johnsongrass [10, 12]: 60 | Plant response rating, Johnsongrass [10, 13]: 75 | Plant response rating, Johnsongrass [10, 14]: 75 | Plant response rating, Blackgrass ([11]; 16 g ai/ha, 0 to 100 scale): 0 | Plant response rating, Blackgrass [11, 12]: 0 | Plant response rating, Blackgrass [11, 13]: 5 | Plant response rating, Blackgrass [11, 14]: 15 | Plant response rating, Soybean (soybean (Glycine max); 16 g ai/ha, 0 to 100 scale): 65 | Plant response rating, Soybean (soybean (Glycine max); [12]): 85 | Plant response rating, Soybean (soybean (Glycine max); [13]): 95 | Plant response rating, Kochia (kochia (Kochia scoparia); 16 g ai/ha, 0 to 100 scale): 5 | Plant response rating, Kochia (kochia (Kochia scoparia); [12]): 5 | Plant response rating, Kochia (kochia (Kochia scoparia); [13]): 10 | Plant response rating, Kochia (kochia (Kochia scoparia); [14]): 15

CCCn1c(-c2ccsc2)ncc(C(=O)C2=C(O)C3CCC(C3)C2=O)c1=O (centres unmarked) [Compound 227]
Plant response rating, Cocklebur [1, 12]: 75 | Plant response rating, Cocklebur [1, 13]: 80 | Plant response rating, Cocklebur [1, 14]: 95 | Plant response rating, Cocklebur [1, 15]: 95 | Plant response rating, Goosegrass [2, 12]: 75 | Plant response rating, Goosegrass [2, 13]: 75 | Plant response rating, Goosegrass [2, 14]: 75 | Plant response rating, Goosegrass [2, 15]: 80 | Plant response rating, Foxtail, Giant [3, 12]: 75 | Plant response rating, Foxtail, Giant [3, 13]: 80 | Plant response rating, Foxtail, Giant [3, 14]: 90 | Plant response rating, Foxtail, Giant [3, 15]: 98 | Plant response rating, Foxtail, Green [4, 12]: 50 | Plant response rating, Foxtail, Green [4, 13]: 90 | Plant response rating, Foxtail, Green [4, 14]: 90 | Plant response rating, Foxtail, Green [4, 15]: 90 | Plant response rating, Ryegrass, Italian [5, 12]: 0 | Plant response rating, Ryegrass, Italian [5, 13]: 0 | Plant response rating, Ryegrass, Italian [5, 15]: 10 | Plant response rating, Ragweed [6, 12]: 60 | Plant response rating, Ragweed [6, 13]: 70 | Plant response rating, Ragweed [6, 15]: 85 | Plant response rating, Morningglory [7, 12]: 100 | Plant response rating, Morningglory [7, 13]: 100 | Plant response rating, Morningglory [7, 14]: 100 | Plant response rating, Morningglory [7, 15]: 100 | Plant response rating, Velvetleaf [8, 12]: 80 | Plant response rating, Velvetleaf [8, 13]: 80 | Plant response rating, Velvetleaf [8, 15]: 98 | Plant response rating, Corn (corn (Zea mays); [12]): 20 | Plant response rating, Corn (corn (Zea mays); [13]): 75 | Plant response rating, Corn (corn (Zea mays); [14]): 75 | Plant response rating, Corn (corn (Zea mays); [15]): 85 | Plant response rating, Crabgrass, Large [9, 12]: 80 | Plant response rating, Crabgrass, Large [9, 13]: 80 | Plant response rating, Crabgrass, Large [9, 14]: 85 | Plant response rating, Crabgrass, Large [9, 15]: 90 | Plant response rating, Johnsongrass [10, 12]: 45 | Plant response rating, Johnsongrass [10, 13]: 60 | Plant response rating, Johnsongrass [10, 14]: 60 | Plant response rating, Johnsongrass [10, 15]: 65 | Plant response rating, Blackgrass [11, 12]: 0 | Plant response rating, Blackgrass [11, 13]: 0 | Plant response rating, Blackgrass [11, 14]: 5 | Plant response rating, Blackgrass [11, 15]: 20 | Plant response rating, Soybean (soybean (Glycine max); [12]): 55 | Plant response rating, Soybean (soybean (Glycine max); [13]): 65 | Plant response rating, Soybean (soybean (Glycine max); [15]): 98 | Plant response rating, Kochia (kochia (Kochia scoparia); [12]): 70 | Plant response rating, Kochia (kochia (Kochia scoparia); [13]): 75 | Plant response rating, Kochia (kochia (Kochia scoparia); [14]): 85 | Plant response rating, Kochia (kochia (Kochia scoparia); [15]): 100
